Results taken from PubChem BioAssay (NCI).
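Cells were grown in 96-well plates and exposed to each compound for 48 hours at five concentrations; endpoints were interpolated linearly between bracketing concentrations, or set to the highest concentration if not reached. GI50 = concentration required for 50% inhibition of growth. TGI is the concentration that stops growth completely.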

Columns and labels:
Test in all cases: NCI anticancer screen, dose series, 48 h
EKVX NSCLC = system: EKVX NSCLC
KM12 colon = system: KM12 colon
MDA-MB-231 breast = system: MDA-MB-231 breast
NCI/ADR-RES ovarian = system: NCI/ADR-RES ovarian
OVCAR-4 ovarian = system: OVCAR-4 ovarian
SF-539 CNS = system: SF-539 CNS
SK-MEL-28 melanoma = system: SK-MEL-28 melanoma
SK-MEL-5 melanoma = system: SK-MEL-5 melanoma
SK-OV-3 ovarian = system: SK-OV-3 ovarian
U251 CNS = system: U251 CNS

| SMILES | GI50 (EKVX NSCLC) [µM] | TGI (EKVX NSCLC) [µM] | GI50 (KM12 colon) [µM] | TGI (KM12 colon) [µM] | GI50 (MDA-MB-231 breast) [µM] | TGI (MDA-MB-231 breast) [µM] | GI50 (NCI/ADR-RES ovarian) [µM] | TGI (NCI/ADR-RES ovarian) [µM] | GI50 (OVCAR-4 ovarian) [µM] | TGI (OVCAR-4 ovarian) [µM] | GI50 (SF-539 CNS) [µM] | TGI (SF-539 CNS) [µM] | GI50 (SK-MEL-28 melanoma) [µM] | TGI (SK-MEL-28 melanoma) [µM] | GI50 (SK-MEL-5 melanoma) [µM] | TGI (SK-MEL-5 melanoma) [µM] | GI50 (SK-OV-3 ovarian) [µM] | TGI (SK-OV-3 ovarian) [µM] | GI50 (U251 CNS) [µM] | TGI (U251 CNS) [µM] |
| --- | --- | --- | --- | --- | --- | --- | --- | --- | --- | --- | --- | --- | --- | --- | --- | --- | --- | --- | --- | --- |
| COc1ccc(NC(=O)c2ccc(NC3=C(Cl)C(=O)N(Cc4ccccc4)C3=O)cc2)c(OC)c1 | 64.9 | > 100 | 27.7 | 92.8 | > 100 | > 100 | 17.8 | 47.3 | 61.8 | > 100 | 28.2 | 67.1 | 83.3 | > 100 | 26.2 | 75.2 | > 100 | > 100 | 27.2 | 86.3 |
| O=C(O)c1cn(C2CC2)c2cc(N3CCN(Cc4c(O)ccc5ccccc45)CC3)c(F)cc2c1=O | > 100 | > 100 | 9.18 | > 100 | 5.15 | > 100 | 11.4 | > 100 | 7 | > 100 | 2.1 | 4.9 | 6.32 | > 100 | 5.45 | > 100 | 11.7 | > 100 | 19 | > 100 |
| N#Cc1c(N/N=C\c2ccc(Cl)cc2)nc(N)nc1N1CCOCC1 | 93.9 | > 100 | 36.1 | > 100 | 25.3 | > 100 | 43.1 | > 100 | 94.4 | > 100 | 75.1 | > 100 | > 100 | > 100 | 19 | > 100 | > 100 | > 100 | 40.4 | > 100 |
| COc1ccc(OC)c(/C=C/c2ccnc3ccccc23)c1 |  | 10.7 |  | 11.5 |  | 9.44 |  | 1.56 |  | 19.6 |  | 0.671 |  | 20.5 |  | 12.9 |  | 5.1 |  | 5.66 |
| Oc1ccccc1/C=N\NC(=S)N/N=C/c1ccccc1O | 2.57 | 24.3 | 3.11 | 21.1 | 3.05 | > 100 | 0.543 | > 100 | 0.64 | 46.7 | 3.26 | 34.3 | 4.14 | > 100 | 1.69 | 8.53 | 4.28 | > 100 | 1.07 | > 100 |
| C=CC(=O)Nc1cccc(Oc2nc(Nc3ccc(N4CCN(C)CC4)cc3OC)ncc2Cl)c1 | 0.363 | 3.38 | 3.46 | 11.2 | 1.94 | 4.12 | 1.88 | 5.69 | 2.36 | > 39.4 | 1.98 | 3.72 | 2.02 | 4.07 | 1.89 | 3.92 | 0.342 | 5.33 | 1.49 | 3.03 |
| CC(C)Cc1ccc(C(C)C(=O)NCc2ccc(Cn3c(=O)sn(CCCI)c3=O)cc2)cc1 (stereo not given) | 1.46 | 2.92 | 1.56 | 3.25 | 1.13 | 2.42 | 1.35 | 5.19 | 0.736 | 2.12 | 0.804 | 2.08 | 1.2 | 2.46 | 1.46 | 2.78 | 2.88 | 8.23 | 1.43 | 2.89 |
| CN(C)Cc1c(C(=O)NCCOc2ccc(C(=O)NO)cc2)oc2ccccc12 | 0.346 | > 100 | 0.312 | 2.34 | 0.392 | 18.2 | 0.306 | 4.27 | 0.269 | > 71.3 | 0.385 | 18 | 0.267 | 2.5 | 0.159 | 0.347 | 0.273 | 2.01 | 0.229 | 0.976 |
| COc1cc(CCNC(=O)OC(C)(C)C)c2c(c1OC)SSSSS2 | 2.69 | 5.97 | 3.67 | 12.2 | 2.58 | 5.82 | 3.64 | 70.2 | 2.05 | 4.82 | 3.42 | 10.4 | 1.9 | 3.68 | 1.84 | 3.38 | 2.8 | 6.05 | 2.47 | 5.28 |
